Tested on: PAIGB expression
Test: Northern blot of PAIGB in rat tibia RNA
Assay type: in vivo
Conditions: intermittent PTH
Description: Isolated RNA was run on 1.2% agorase gel in 1×MOPS ((3-[N-morpholino]propanesulfonic acid) buffer) and formaldehyde. RNA gel was run in 1×MOPS (Sigma). RNA was transferred on nylon membrane (S&S) using Turbo-blot according to instruction provided by manufacturer (S&S). RADE fragment(s) as well as GAPDH or ciclophylin were labeled using random prime labeling kit (Gibco, BRL) according to provided instructions. Hybridization with labeled probes was performed using ExpressHyb (Sigma), at 68° C. over night. Blots were washed 2 times at room temperature for 15 min in low stringency buffer (2×SSC, 0.1% SDS), and 1 time at 65° C. for 15 min in […]. Blots were exposed over night using Kodak film.
In order to confirm the results from RADE experiments data, Northern blot analysis was done on RNA samples from rat tibia after intermittent and continuous PTH injections. […] In addition a multiple tissue northern blot was performed on the samples provided by commercially available blots. The northern blot analysis indicated very abundant expression of PAIGB in brain, but little expression in heart and lung.

human PTH (1-34)
increase of PAIGB expression vs vehicle (phosphor-imager, Northern blot): 36 fold

Reference: patent publication US7258999B2, “PTH responsive gene” (Wyeth, priority 2002, dated 2007)
